This is an account of results in ChEMBL document CHEMBL2074143, “Up-regulation of organic anion transporter 1 protein is induced by chronic furosemide or hydrochlorothiazide infusion in rat kidney” (Nephrol Dial Transplant, 2003).

The target in series [1] is T1, Solute carrier family 22 member 6 (Rattus norvegicus, UniProt O35956).
T1 sequence (O35956 whole entry): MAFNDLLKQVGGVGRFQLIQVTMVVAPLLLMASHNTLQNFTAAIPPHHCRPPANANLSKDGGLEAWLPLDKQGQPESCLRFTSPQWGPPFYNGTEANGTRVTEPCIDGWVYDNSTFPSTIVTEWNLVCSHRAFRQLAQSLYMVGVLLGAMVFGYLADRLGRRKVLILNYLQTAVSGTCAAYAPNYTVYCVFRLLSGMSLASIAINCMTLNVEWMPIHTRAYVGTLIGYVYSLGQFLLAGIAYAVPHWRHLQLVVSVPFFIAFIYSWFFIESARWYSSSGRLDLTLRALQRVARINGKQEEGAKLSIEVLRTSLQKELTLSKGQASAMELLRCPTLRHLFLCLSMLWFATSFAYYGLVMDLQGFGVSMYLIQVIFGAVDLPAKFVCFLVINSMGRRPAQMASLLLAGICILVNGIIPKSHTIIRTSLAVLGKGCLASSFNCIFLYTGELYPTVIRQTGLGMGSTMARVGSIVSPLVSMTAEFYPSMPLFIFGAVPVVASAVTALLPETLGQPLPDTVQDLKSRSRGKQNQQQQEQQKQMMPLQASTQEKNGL
Description: TP_TRANSPORTER: Western in vivo, SD rat, kidney. It counts as functional, organism-based, Sprague-Dawley.

Series [2] deals with T1, Solute carrier family 22 member 6. Description: TP_TRANSPORTER: quantitative PCR in vivo, SD rat, kidney. It counts as functional, organism-based, Sprague-Dawley.

For `NS(=O)(=O)c1cc(C(=O)O)c(NCc2ccco2)cc1Cl` [FUROSEMIDE], the Activity result in series [1] and in series [2] was “inducer []” in each case.
